Data reported in patent US20250381179A1, “CHROMAN-BASED COMPOUNDS FOR TREATING CANCER” (priority 2024, published 2025).

What was measured:
[1] = test system: tamoxifen-resistant MCF7 xenograft; assay: Tamoxifen-resistant MCF7 xenograft model; format: in vivo, mice; details: in combination with the CDK4/6 inhibitor palbociclib
CYP2B6 = target: T1, CYP2B6 (Homo sapiens, UniProt P20813)
T1 sequence (P20813 1-491): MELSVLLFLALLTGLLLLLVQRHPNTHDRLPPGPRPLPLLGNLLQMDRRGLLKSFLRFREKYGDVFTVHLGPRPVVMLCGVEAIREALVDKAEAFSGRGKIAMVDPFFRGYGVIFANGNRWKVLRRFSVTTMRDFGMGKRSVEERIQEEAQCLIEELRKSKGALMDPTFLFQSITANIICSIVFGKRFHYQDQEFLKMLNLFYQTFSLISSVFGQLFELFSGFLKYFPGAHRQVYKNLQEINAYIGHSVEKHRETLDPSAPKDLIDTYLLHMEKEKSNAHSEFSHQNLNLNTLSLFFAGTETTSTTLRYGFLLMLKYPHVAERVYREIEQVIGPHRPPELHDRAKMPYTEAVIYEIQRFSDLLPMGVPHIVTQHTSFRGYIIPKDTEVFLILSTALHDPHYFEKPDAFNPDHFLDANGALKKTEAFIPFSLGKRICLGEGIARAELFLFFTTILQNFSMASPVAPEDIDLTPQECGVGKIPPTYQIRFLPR

[2] = test system: ER+/HER2− locally advanced or metastatic breast cancer; assay: Phase 1 study: anti-tumor activity (RECIST v1.1; ORR, CBR, best objective response); format: in vivo, human; details: for ORR (CR + PR) - n (%): RECIST 1.1, Investigator assessment; for Response - n (%): RECIST 1.1, efficacy evaluable set; for Confirmed Complete Response (cCR) / Confirmed Partial Response (cPR): confirmed by second assessment at least 4 weeks after first
Experimental: The study employed an open-label, 3+3 design, with the option of adding backfill patients to each cohort cleared and deemed safe. […] Compound (1-g) was administered orally once daily in 28-day cycles. Tumor responses were assessed every 2 cycles using RECIST v1.1 criteria. Therefore, the initial dose of 100 mg QD was chosen to limit the number of patients exposed to lower efficacious dose levels, while adding an additional 2.5-fold safety margin. The study also involves an ongoing dose escalation study where participants receive 100 mg, 200 mg, 300 mg, 400 mg, and 600 mg once daily (QD) dose levels.
Response and progression will be evaluated in this study using RECIST Version 1.1. Lesions are either measurable or non-measurable according to the criteria. The actual number of dose levels to be explored in this study depended on determination of the non-tolerable dose based on DLTs. Other safety data, as well as PK profiles observed during the conduct of the study and any trends for anti-tumor activity were collected. Treatment cycles occurred consecutively. Evaluation of a cohort of at least 3 patients completing 1 cycle of treatment (28 days) is required prior to proceeding to the next dose level. In addition, selected dose levels may be expanded to approximately 20 patients (per dose level).
All efficacy analyses were performed using the Efficacy Evaluable Analysis Set. Objective Response Rate (ORR), defined as the proportion of patients who have measurable disease at baseline with confirmed […] or partial response (PR) (i.e., 2 CRs or PRs at least 4 weeks apart) according to the RECIST Version 1.1 criteria. Clinical Benefit Rate (CBR), defined as the proportion of patients with CR, PR, or stable disease (SD) (where SD is ≥24 weeks) according to the RECIST Version 1.1 criteria. Duration of Response (DOR), defined as the time between first documentation of a response (CR or PR) and first evidence of PD according to RECIST v1.1 or death due to any cause. […] Progression Free Survival (PFS), defined as the time from the first day of study drug administration (Day 1) until disease progression as defined by the RECIST Version 1.1 criteria, or death on study, whichever occurs first. Patients who are alive and free from disease progression were censored at the date of last tumor assessment. For ORR and CBR, estimates and the associated 95% CIs (based on the Clopper-Pearson method), at each dose level were calculated. The absolute and relative difference in ORR and CBR between the two treatment groups was presented. For PFS, Kaplan-Meier curves were generated and the median time to event, and the associated 95% CIs were provided. The hazard ratio and the 95% CIs for these endpoints between the two treatment groups was calculated.
The overall response is evaluated according to the criteria in Table 4.
The objective response rate (ORR) and the clinical benefit rate (CBR) were assessed for the participants. The clinical benefit rate (CBR), as used herein, is defined as confirmed complete response or partial response at any time and stable disease over ≥24 weeks. Evaluable participants need to complete an adequate post-treatment scan. Participants with SD who remain on study <6 months are not included in the denominator.

Compound: O=C1CC[C@H](N2Cc3cc(N4CCN(CC5CCN(c6ccc([C@@H]7c8ccc(O)cc8OC[C@@H]7c7ccccc7)cc6F)CC5)CC4)ccc3C2=O)C(=O)N1 [compound (1-g), (S)-3-(5-(4-((1-(2-fluoro-4-((3S,4R)-7-hydroxy-3-phenylchroman-4-yl)phenyl)piperidin-4-yl)methyl)piperazin-1-yl)-1-oxoisoindolin-2-yl)piperidine-2,6-dione]
- anti-tumor activity in combination [1]: enhanced anti-tumor activity was observed
- severely toxic dose in 10% of animals (STD10) (female, rat, in vivo, po, 28 day): 270 mg/kg/day
- off-target adverse toxicities (rat, in vivo): no off-target adverse toxicities observed
- key organ effects (rats, 28-day GLP): considered on target pharmacological effects
- CYP2B6 time-dependent inhibition (CYP2B6): without showing time-dependent inhibition
- Non-Response - n (%) ([2]; Cohort 1 (100 mg QD), N = 2): 1 (50.0) n (%)
- Not Applicable (NA) ([2]; Cohort 1 (100 mg QD), N = 2): 0 n (%)
- Not Evaluable (NE) ([2]; Cohort 1 (100 mg QD), N = 2): 0 n (%)
- Progressive Disease (PD) ([2]; Cohort 1 (100 mg QD), N = 2): 0 n (%)
- Unconfirmed Complete Response (uCR) ([2]; Cohort 1 (100 mg QD), N = 2): 0 n (%)
- Unconfirmed Partial Response (uPR) ([2]; Cohort 1 (100 mg QD), N = 2): 0 n (%)
- ORR (CR + PR) - n (%) ([2]; Cohort 1 (100 mg QD), N = 2): 1 (50.0) n (%)
- Response - n (%) ([2]; Cohort 1 (100 mg QD), N = 2): 1 (50.0) n (%)
- Confirmed Complete Response (cCR) ([2]; Cohort 1 (100 mg QD), N = 2): 0 n (%)
- Confirmed Partial Response (cPR) ([2]; Cohort 1 (100 mg QD), N = 2): 1 (50.0) n (%)
- Non-Response - n (%) ([2]; Cohort 2 (200 mg QD), N = 8): 6 (75.0) n (%)
- Not Applicable (NA) ([2]; Cohort 2 (200 mg QD), N = 8): 0 n (%)
- Not Evaluable (NE) ([2]; Cohort 2 (200 mg QD), N = 8): 1 (12.5) n (%)
- Progressive Disease (PD) ([2]; Cohort 2 (200 mg QD), N = 8): 2 (25.0) n (%)
- Unconfirmed Complete Response (uCR) ([2]; Cohort 2 (200 mg QD), N = 8): 0 n (%)
- Unconfirmed Partial Response (uPR) ([2]; Cohort 2 (200 mg QD), N = 8): 0 n (%)
- ORR (CR + PR) - n (%) ([2]; Cohort 2 (200 mg QD), N = 8): 2 (25.0) n (%)
- Response - n (%) ([2]; Cohort 2 (200 mg QD), N = 8): 2 (25.0) n (%)
- Confirmed Complete Response (cCR) ([2]; Cohort 2 (200 mg QD), N = 8): 0 n (%)
- Confirmed Partial Response (cPR) ([2]; Cohort 2 (200 mg QD), N = 8): 2 (25.0) n (%)
- Non-Response - n (%) ([2]; Cohort 3 (300 mg QD), N = 9): 8 (88.9) n (%)
- Not Applicable (NA) ([2]; Cohort 3 (300 mg QD), N = 9): 0 n (%)
- Not Evaluable (NE) ([2]; Cohort 3 (300 mg QD), N = 9): 0 n (%)
- Progressive Disease (PD) ([2]; Cohort 3 (300 mg QD), N = 9): 4 (44.4) n (%)
- Unconfirmed Complete Response (uCR) ([2]; Cohort 3 (300 mg QD), N = 9): 0 n (%)
- Unconfirmed Partial Response (uPR) ([2]; Cohort 3 (300 mg QD), N = 9): 0 n (%)
- ORR (CR + PR) - n (%) ([2]; Cohort 3 (300 mg QD), N = 9): 1 (11.1) n (%)
- Response - n (%) ([2]; Cohort 3 (300 mg QD), N = 9): 1 (11.1) n (%)
- Confirmed Complete Response (cCR) ([2]; Cohort 3 (300 mg QD), N = 9): 0 n (%)
- Confirmed Partial Response (cPR) ([2]; Cohort 3 (300 mg QD), N = 9): 1 (11.1) n (%)
- Non-Response - n (%) ([2]; Cohort 4 (400 mg QD), N = 4): 4 (100) n (%)
- Not Applicable (NA) ([2]; Cohort 4 (400 mg QD), N = 4): 0 n (%)
- Not Evaluable (NE) ([2]; Cohort 4 (400 mg QD), N = 4): 0 n (%)
- Progressive Disease (PD) ([2]; Cohort 4 (400 mg QD), N = 4): 2 (50.0) n (%)
- Unconfirmed Complete Response (uCR) ([2]; Cohort 4 (400 mg QD), N = 4): 0 n (%)
- Unconfirmed Partial Response (uPR) ([2]; Cohort 4 (400 mg QD), N = 4): 0 n (%)
- ORR (CR + PR) - n (%) ([2]; Cohort 4 (400 mg QD), N = 4): 0 n (%)
- Response - n (%) ([2]; Cohort 4 (400 mg QD), N = 4): 0 n (%)
- Confirmed Complete Response (cCR) ([2]; Cohort 4 (400 mg QD), N = 4): 0 n (%)
- Confirmed Partial Response (cPR) ([2]; Cohort 4 (400 mg QD), N = 4): 0 n (%)
- Non-Response - n (%) ([2]; Cohort 5 (600 mg QD), N = 3): 3 (100) n (%)
- Not Applicable (NA) ([2]; Cohort 5 (600 mg QD), N = 3): 0 n (%)
- Not Evaluable (NE) ([2]; Cohort 5 (600 mg QD), N = 3): 0 n (%)
- Progressive Disease (PD) ([2]; Cohort 5 (600 mg QD), N = 3): 0 n (%)
- Unconfirmed Complete Response (uCR) ([2]; Cohort 5 (600 mg QD), N = 3): 0 n (%)
- Unconfirmed Partial Response (uPR) ([2]; Cohort 5 (600 mg QD), N = 3): 0 n (%)
- Response - n (%) ([2]; Cohort 5 (600 mg QD), N = 3): 0 n (%)
- Confirmed Complete Response (cCR) ([2]; Cohort 5 (600 mg QD), N = 3): 0 n (%)
- Confirmed Partial Response (cPR) ([2]; Cohort 5 (600 mg QD), N = 3): 0 n (%)
- Non-Response - n (%) ([2]; Overall, N = 26): 22 (84.6) n (%)
- Not Applicable (NA) ([2]; Overall, N = 26): 0 n (%)
- Not Evaluable (NE) ([2]; Overall, N = 26): 1 (3.8) n (%)
- Progressive Disease (PD) ([2]; Overall, N = 26): 8 (30.8) n (%)
- Unconfirmed Complete Response (uCR) ([2]; Overall, N = 26): 0 n (%)
- Unconfirmed Partial Response (uPR) ([2]; Overall, N = 26): 0 n (%)
- ORR (CR + PR) - n (%) ([2]; Overall, N = 26): 4 (15.4) n (%)
- Response - n (%) ([2]; Overall, N = 26): 4 (15.4) n (%)
- Confirmed Complete Response (cCR) ([2]; Overall, N = 26): 0 n (%)
- Confirmed Partial Response (cPR) ([2]; Overall, N = 26): 4 (15.4) n (%)
